Reference: US12673120B2, “Fluorescently-traceable amino acid derivative and preparation methods and use thereof” (priority 2020, dated 2026)

Legend:
Water solubility = format: physicochemical; conditions: decides the injection route
[1] = Viscera-weight ratio / toxicity in tumor-bearing mice; format: in vivo, male ICR mice
Protocol: (§1) The specific method included: drugs were administered to tumor-forming mice by group for 7 consecutive days, a length of the tumor was measured every other day to calculate a tumor volume. 24 h after the last administration, the mice were weighed, anesthetized with diethyl ether, and eyeballs were removed to collect blood; the obtained whole blood was centrifuged at 1,000 rpm for 10 min, and a serum was absorbed for later use. The mice were sacrificed by neck dislocation, and the tumor mass and various organs were stripped and weighed (it was ensured that the operation was done as soon as possible and the stripping was complete and clean). The tumor inhibition rate was calculated by formula b, the results were shown in Table 2 and FIG. 2; and by calculating a viscera-weight ratio of each organ, and it was analyzed whether the test compound had obvious physiological effects on the mouse organs.
After a preliminary study on the in vivo anti-tumor growth activity of different amino acid main compounds, ZD-A, ZD-B, ZD-E-1, and ZD-E-1 with an increased side-chain methylene unit (ZD-F-1) were selected; three dosages of 10 μmol/kg, 5 μmol/kg, and 2 μmol/kg were set to evaluate the inhibitory ability of the four compounds on tumor growth in mice. […] Afterwards, the tumor growth trend and the viscera-weight ratio of the two compounds on mice were analyzed to compare the anti-tumor growth ability and toxicity of the two compounds. The results were shown in FIG. 4 and FIG. 5: after one-way analysis of variance, * meant that compared with the Vehicle group, there was a difference, P<0.05; ** represented a significant difference compared with the Vehicle group, P<0.01.

[2] = system: S180 (mouse ascites tumor cells); assay: In vitro anti-tumor cell proliferation activity (MTT method), S180; format: cell-based; conditions: S180; 48 h; Mean ± SD; read-out: IC50 values of in vitro anti-cell proliferation activity
Protocol: (§2) Tested cell lines S180 (mouse ascites tumor cells), LLC (mouse lung cancer cells), A549 (human non-small cell lung cancer cells), HCT116 (human colon cancer cells), U2Os (human osteosarcoma cells), and MCF-7 (human breast cancer cells) each were purchased from Nanjing KeyGen Biotech.
(§3) When preparing a test sample, the test compound was prepared into a sample solution with a concentration of 500 μM (with a final concentration 100 μM) by a PBS buffer containing 0.5% DMSO, which was used for preliminary screening of an anti-cell proliferation experiment in vitro.
(§4) Positive control group: doxorubicin, prepared to a required concentration with PBS buffer containing 0.5% DMSO; negative control group: a PBS buffer containing 0.5% DMSO; blank group: a PBS buffer containing 0.01% DMSO.

[3] = system: MCF-7 (human breast cancer cells); assay: In vitro anti-tumor cell proliferation activity (MTT method), MCF-7; format: cell-based; conditions: MCF-7; 48 h; Mean ± SD; read-out: IC50 values of in vitro anti-cell proliferation activity
Protocol: as §2, §3, §4

[4] = system: HCT116 (human colon cancer cells); assay: In vitro anti-tumor cell proliferation activity (MTT method), HCT116; format: cell-based; conditions: HCT116; 48 h; Mean ± SD; read-out: IC50 values of in vitro anti-cell proliferation activity
Protocol: as §2, §3, §4

[5] = system: U2Os (human osteosarcoma cells); assay: In vitro anti-tumor cell proliferation activity (MTT method), U2Os; format: cell-based; conditions: U2Os; 48 h; Mean ± SD; read-out: IC50 values of in vitro anti-cell proliferation activity
Protocol: as §2, §3, §4

[6] = system: LLC (mouse lung cancer cells); assay: In vitro anti-tumor cell proliferation activity (MTT method), LLC; format: cell-based; conditions: LLC; 48 h; Mean ± SD; read-out: IC50 values of in vitro anti-cell proliferation activity
Protocol: as §2, §3, §4

[7] = Nanomorphology characterization and stability (TEM, SEM, hydration particle size, Zeta potential); format: physicochemical
From the text: The nanomorphology of compounds ZD-B and ZD-E-1 were studied by TEM and SEM, and hydration particle size and Zeta potential of the two compounds in a solution were studied by a nanometer particle size analyzer. The results were shown in FIG. 1A-H. In FIG. 1A-H, FIG. 1A was a TEM image of the compound ZD-B; FIG. 1B was a TEM image of the compound ZD-E-1; FIG. 1C was a SEM image of the compound ZD-B; FIG. 1D was a SEM image of the compound ZD-E-1; FIG. 1E was a hydration particle size change curve of the compound ZD-B in solutions at different pH values within 72 h (0.5 h, 24 h, 48 h, and 72 h); FIG. 1F was a hydration particle size change curve of the compound ZD-E-1 in solutions at different pH solutions within 72 h; FIG. 1G was a Zeta potential change curve of the compound ZD-B in solutions at different pH values within 72 h; and FIG. 1H was a Zeta potential change curve of the compound ZD-E-1 in solutions at different pH values within 72 h.

[8] = system: A549 (human non-small cell lung cancer cells); assay: In vitro anti-tumor cell proliferation activity (MTT method), A549; format: cell-based; conditions: A549; 48 h; Mean ± SD; read-out: IC50 values of in vitro anti-cell proliferation activity
Protocol: as §2, §3, §4

mouse S180 sarcoma model = assay: Inhibition of tumor growth in vivo (mouse S180 sarcoma model); parameters: species or system male ICR mice; conditions: for Average tumor weight: Mean ± SD, n 10
Protocol: The mice used in the experiment were male ICR mice of SPF grade, weighing 20 g±2 g, purchased from Beijing Vital River Laboratory Animal Technology Co., Ltd., and raised in an animal barrier of the Experimental Animal Department of Capital Medical University.
as §1

[9] = Table 2, 10 μmol/kg, ip, 7 consecutive days
[10] = three dosages 10, 5, 2 μmol/kg, iv

In the case of `N=C(CCl)NCCC[C@H](Nc1ccc([N+](=O)[O-])c2nonc12)C(=O)NCc1ccccc1` [ZD-E-1, (S)—N-benzyl-5-(2-chloroacetimido)-2-((7-nitro-2,1,3-benzoxadiazol-4-yl)amino)pentaneamide], the Water solubility (Water solubility) is reported as “had no such concerns”, the “Effect on liver weight (viscera-weight ratio) compared with Vehicle group” value ([1]; FIG. 5, ZD-E-1 at high dosages (10 μmol/kg and 5 μmol/kg)) is reported as “different from those in the Vehicle group” and the “Effect on brain weight (viscera-weight ratio) compared with Vehicle group” value ([1]; FIG. 5, ZD-E-1 at three dosages) is reported as “different from those in the Vehicle group”. For the same compound, the Toxic side effects ([1]; mice, compared with ZD-F-1) was “more obvious toxic side effects, causing liver failure and brain lesions in mice”, the IC50 [2] was 24.6 ± 1.72 µM and the IC50 [3] was 40.5 ± 1.91 µM. The IC50 [4] was 22.6 ± 1.45 µM, the IC50 [5] was 28.8 ± 1.14 µM and the IC50 [6] was 26.1 ± 2.58 µM. For the same compound, the “Nanomorphology (shape)” value ([7]; TEM and SEM) was “shape of a ball”, the “Hydration particle size change” value ([7]; pH=2.0, measured continuously for 72 h) was “particle size hardly changed” and the “Hydration particle size change” value ([7]; pH=5.5, measured continuously for 72 h) was “particle size increased and then decreased”. The Hydration particle size ([7]; pH=7.0 versus other pH values, 72 h) was “smallest particle size at pH=7.0”, the Zeta potential change ([7]; solutions at different pH values, measured continuously for 72 h) was “neither ZD-B nor ZD-E-1 had an obvious change” and the IC50 [8] was 45.5 ± 0.672 µM. For the same compound, the “Anti-tumor growth activity (in words)” value (mouse S180 sarcoma model; 10 μmol/kg, ip) was “most prominent activities”, the “Average tumor weight compared with Vehicle group (one-way analysis of variance)” value (mouse S180 sarcoma model; 10 μmol/kg, ip) was “significantly different from that of Vehicle group” and the “Tumor growth trend in mice” value (mouse S180 sarcoma model; FIG. 4, ZD-E-1 versus ZD-F-1) was “roughly the same”. The Tumor Inhibition Rate (mouse S180 sarcoma model; [9]) was 40.01%, the Average tumor weight (mouse S180 sarcoma model; [9]) was 1.072 ± 0.386 g and the “Tumor Inhibition Rate” value (mouse S180 sarcoma model; Table 3, 2 μmol/kg, iv) was 39.23%. The Average tumor weight (mouse S180 sarcoma model; Table 3, 2 μmol/kg, iv) was 1.042 ± 0.205 g, the “Tumor Inhibition Rate” value (mouse S180 sarcoma model; Table 3, 5 μmol/kg, iv) was 41.65% and the Average tumor weight (mouse S180 sarcoma model; Table 3, 5 μmol/kg, iv) was 1.001 ± 0.196 g. The “Tumor Inhibition Rate” value (mouse S180 sarcoma model; Table 3, 10 μmol/kg, iv) was 42.73%, the Average tumor weight (mouse S180 sarcoma model; Table 3, 10 μmol/kg, iv) was 0.982 ± 0.300 g and the “Anti-tumor growth activity (in words)” value (mouse S180 sarcoma model; [10]) was “desirable and stable anti-tumor growth activity”. The “Average tumor weight compared with Vehicle group (one-way analysis of variance)” value (mouse S180 sarcoma model; [10]) was “significant differences compared with the Vehicle group” and the “Average tumor weight compared with the YW3-56 group” value (mouse S180 sarcoma model; [10]) was “no difference compared with the YW3-56 group”.
